Data reported in PubChem BioAssay (NCI).
Values joined by “and” are separate entries in the source; they are usually repeats but may differ in a detail not shown here. Equal entries are not always repeated.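 96-well plates; 48 h exposure; 5 concentrations. Endpoints by linear interpolation between flanking doses. Not reached: highest tested concentration assigned. At the GI50, growth is halved. TGI denotes the concentration required for complete inhibition of growth.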

Legend:
Assay in all cases: DTP human tumour cell line panel, 48 h
[1] = system: SK-OV-3 ovarian
[2] = system: 786-0 renal
[3] = system: COLO 205 colon
[4] = system: K-562 leukemia
[5] = system: HOP-92 NSCLC
[6] = system: UACC-62 melanoma
[7] = system: UACC-257 melanoma
[8] = system: TK-10 renal
[9] = system: MCF7 breast
[10] = system: SNB-19 CNS

Compound	TGI [1]	TGI [2]	TGI [3]	TGI [4]	TGI [5]	TGI [6]	TGI [7]	TGI [8]	TGI [9]	TGI [10]	GI50 [1]	GI50 [2]	GI50 [3]	GI50 [4]	GI50 [5]	GI50 [6]	GI50 [7]	GI50 [8]	GI50 [9]	GI50 [10]
COC1=C(OC)C(=O)C(Sc2ccc3ccccc3c2)=CC1=O	31.7 µM	16.3 µM	23.7 µM	10.3 µM	45.6 µM	20.5 µM	22.2 µM	27 µM	43.9 µM	32.4 µM	–	–	–	–	–	–	–	–	–	–
CC(C)(C)NC(=O)[C@H]1CC[C@H]2[C@@H]3CC[C@H]4NC(=O)C=C[C@]4(C)[C@H]3CC[C@]12C	> 100 µM	> 100 µM	> 100 µM	> 100 µM	> 100 µM	> 100 µM	> 100 µM	> 100 µM	> 100 µM	> 100 µM	> 100 µM	> 100 µM	> 100 µM	53.5 µM and > 100 µM	30.3 µM	> 100 µM	48.3 µM and > 100 µM	> 100 µM	> 100 µM	> 100 µM
O=C(Nc1cccc(-n2cc(-c3ccncc3)c(-c3ccc(O)c(Cl)c3)n2)c1)c1cc(C(F)(F)F)cc(C(F)(F)F)c1	> 50 µM	18.3 µM	23.5 µM	> 50 µM	4.15 µM	> 50 µM	> 50 µM	> 50 µM	> 50 µM	> 50 µM	22.8 µM	3.93 µM	9.82 µM	2.57 µM	0.822 µM	10.6 µM	16.1 µM	10.9 µM	2.17 µM	12.8 µM
CC(c1ccccc1)[C@@H](C(=O)Nc1ccc(I)cc1F)N1C(=O)N[C@H](c2ccc(OC[C@H](O)CO)cc2)C1=O (stereo not given in full)	> 25 µM	> 25 µM	> 25 µM	> 25 µM	7.03 µM	2.25 µM	0.892 µM	> 25 µM	> 25 µM	> 25 µM	> 25 µM	> 14.4 µM	0.0368 µM	9.38 µM	0.552 µM	0.0551 µM	0.052 µM	4.86 µM	> 15 µM	6.63 µM
Nc1nnnc2nc[nH]c12	6.22 µM	> 100 µM	7.47 µM	> 100 µM	> 100 µM	2.72 µM	14 µM	> 41.5 µM	> 100 µM	> 100 µM	0.327 µM	0.96 µM	1.85 µM	3.72 µM	0.622 µM	0.637 µM	0.729 µM	0.5 µM	2.58 µM	6.17 µM
CCN(CC)c1ccc2nc3c4ccccc4c(=O)cc-3n(-c3ccccc3)c2c1	5.92 µM	8.86 µM	1.59 µM	> 100 µM	4.78 µM	4.31 µM	2.9 µM	5.63 µM	7.83 µM	> 100 µM	1.91 µM	2.66 µM	0.353 µM	2.41 µM	1.24 µM	1.36 µM	1.12 µM	1.77 µM	0.53 µM	3.32 µM
COc1ccc2nc3cc([N+](=O)[O-])ccc3c(NNc3ccccc3)c2c1	35.3 µM and > 100 µM	40.4 µM and 44 µM	37.5 µM and 29.5 µM	29.4 µM and > 100 µM	28 µM and 47.4 µM	22.8 µM and 25.1 µM	51.5 µM and > 100 µM	30 µM and > 100 µM	19.6 µM and 45.4 µM	57.1 µM and > 100 µM	14.9 µM	–	17.1 µM	3.49 µM	11.5 µM	5.93 µM	17.3 µM	12.1 µM	4.34 µM	18.2 µM
ClCc1ccc(Cn2cnc3c(Cl)ncnc32)cc1	47.6 µM	> 20 µM	> 100 µM	> 63 µM	39.9 µM	19.5 µM	50 µM	23.6 µM	55.7 µM	43.3 µM	20 µM	–	13.7 µM	15.4 µM	8.48 µM	9.76 µM	24.2 µM	11.3 µM	4.65 µM	16.9 µM
Nc1cc(C(F)(F)F)c(-c2cc(N3CCOCC3)nc(N3CCOCC3)n2)cn1	1.58 µM and 2.94 µM	9.77 µM and 8.63 µM	2.8 µM and 3.42 µM	> 100 µM	1.17 µM and 0.617 µM	1.99 µM and 2.92 µM	> 7.31 µM and 4.25 µM	2.75 µM and 2.15 µM	> 10 µM and 4.05 µM	> 100 µM	0.235 µM and 0.654 µM	1.65 µM and 2.1 µM	0.629 µM and 1.25 µM	0.875 µM and 0.58 µM	0.162 µM and 0.0723 µM	0.318 µM and 0.375 µM	0.59 µM and 0.417 µM	0.303 µM and 0.338 µM	0.228 µM and 0.257 µM	2.28 µM and 2.71 µM
Cc1ccc(Cl)cc1NC(=O)c1cc2ccccc2cc1O	2.95 µM	1.94 µM	3.48 µM	10.1 µM	0.724 µM	2.65 µM	0.909 µM	4.46 µM	4.88 µM	> 40.1 µM	0.406 µM	0.507 µM	1.7 µM	0.365 µM	0.222 µM	0.308 µM	0.277 µM	0.948 µM	1.35 µM	0.442 µM
Cc1ccc(NC(=O)Nc2c(Cl)cccc2Cl)cn1	> 100 µM	> 100 µM	24.3 µM	> 100 µM	> 100 µM	> 100 µM	> 100 µM	41.6 µM	> 100 µM	> 100 µM	5.97 µM	61.2 µM	3.61 µM	4.03 µM	16.8 µM	5.76 µM	71.4 µM	18.1 µM	7.29 µM	26.1 µM
COc1cccc2nc3ccccc3nc12	> 100 µM	> 100 µM	> 100 µM	> 100 µM	78.1 µM	> 100 µM	> 100 µM	> 100 µM	> 100 µM	> 100 µM	–	–	–	–	–	–	–	–	–	–
Cc1ccc(-c2nc3cc(Cl)c(Cl)cc3nc2C#N)cc1	> 100 µM	> 100 µM	> 100 µM	> 100 µM	> 100 µM	> 100 µM	> 100 µM	> 100 µM	> 100 µM	> 100 µM	> 100 µM	47.5 µM	> 100 µM	> 100 µM	40.5 µM	> 100 µM	> 100 µM	49.2 µM	> 100 µM	> 100 µM
C[C@@H](NC(=O)c1ncnc(N)c1Cl)c1ncc(C(=O)Nc2cc(C(F)(F)F)c(Cl)cn2)s1	> 93.5 µM	> 100 µM	24.3 µM	> 45.9 µM	9.44 µM	8.7 µM	4.77 µM	46.6 µM	66.1 µM	> 100 µM	31.2 µM	36.3 µM	0.616 µM	0.462 µM	1.46 µM	0.402 µM	0.478 µM	19.6 µM	19.9 µM	26.6 µM
O=S(=O)(c1ccccc1)N1CN2CN(C1)CN(S(=O)(=O)c1ccccc1)C2	> 100 µM	> 100 µM	> 100 µM	> 100 µM	> 100 µM	> 100 µM	> 100 µM	> 100 µM	> 100 µM	> 100 µM	–	–	–	–	–	–	–	–	–	–
Cc1ccc(/C=C/c2c(C(=O)/C=C/c3ccc(Cl)cc3)c(C)nc3ccccc23)cc1	15.7 µM	3.2 µM	5.46 µM	> 100 µM	3.53 µM	3.72 µM	4.8 µM	4.84 µM	4.95 µM	3.28 µM	3.74 µM	1.6 µM	2.17 µM	2.63 µM	1.62 µM	1.75 µM	2.15 µM	2.53 µM	1.58 µM	1.75 µM
C(=Nc1cnc2ccccc2c1)c1ccc2ccccc2n1	> 100 µM	> 100 µM	> 100 µM	> 100 µM	> 100 µM	> 100 µM	> 100 µM	> 100 µM	> 100 µM	> 100 µM	–	–	–	–	–	–	–	–	–	–
Clc1ccc2ncc(-c3cccc(NC4CNC4)n3)n2c1	> 100 µM	> 100 µM	7.31 µM	> 100 µM	67.7 µM	27.3 µM	51.4 µM	93.3 µM	52.3 µM	> 100 µM	9.24 µM	7.96 µM	2.11 µM	8.9 µM	20.5 µM	10.2 µM	11.5 µM	8.03 µM	4.64 µM	24.1 µM
O=C(O)c1c(Cl)c(Cl)c(Cl)c(Cl)c1C(=O)Nc1ccc2cn[nH]c2c1	> 100 µM	> 100 µM	> 100 µM	> 100 µM	> 100 µM	> 100 µM	> 100 µM	> 100 µM	> 100 µM	> 100 µM	–	–	–	–	–	–	–	–	–	–
O=C(Nc1ccccc1C(F)(F)F)c1ccc(NC2=C(Cl)C(=O)N(Cc3ccccc3)C2=O)cc1	> 100 µM	> 100 µM	> 100 µM	80.5 µM	35.2 µM	59.2 µM	82.9 µM	52.5 µM	> 100 µM	> 100 µM	57.7 µM	33.7 µM	98.1 µM	5.65 µM	11.3 µM	18.1 µM	28.7 µM	17.6 µM	7.33 µM	36.6 µM
Cc1nc(-c2cnc(NC(C)C)n(C)c2=O)ccc1Oc1ccnc(-c2cnn(C)c2)c1	> 100 µM	> 100 µM	80.7 µM	9.33 µM	53.1 µM	45.7 µM	55.1 µM	75.4 µM	> 100 µM	> 100 µM	23.5 µM	25.7 µM	10.6 µM	1.64 µM	7.44 µM	4.84 µM	12 µM	16 µM	5.07 µM	25.2 µM
CN(C)C=NC1CCC(C(C)(C)C)CC1 (stereo not given)	44.8 µM	33.3 µM	33.2 µM	45.1 µM	34.6 µM	33.8 µM	29.1 µM	38.6 µM	> 100 µM	39.9 µM	–	–	–	–	–	–	–	–	–	–
O=c1ccc(=O)n(-c2ccccc2)[nH]1	> 100 µM	> 100 µM	> 100 µM	> 100 µM	> 100 µM	> 100 µM	> 100 µM	> 100 µM	> 100 µM	> 100 µM	–	–	–	–	–	–	–	–	–	–
COc1ccc2nc(-c3ccccc3)cc(Nc3cccc(C(C)=O)c3)c2c1	56.5 µM	9.64 µM	41.1 µM	> 100 µM	38.4 µM	31.4 µM	78.7 µM	28.5 µM	33.2 µM	> 100 µM	19.7 µM	2.66 µM	6.58 µM	7.73 µM	15.2 µM	15.4 µM	18.3 µM	12.6 µM	7.95 µM	17.2 µM
O=C(COc1ccc(OCC(=O)N2C(=O)CN(c3ccccc3)C2=S)cc1)N1C(=O)CN(c2ccccc2)C1=S	> 100 µM	> 100 µM	> 100 µM	> 100 µM	> 100 µM	> 100 µM	> 100 µM	> 100 µM	> 100 µM	> 100 µM	–	> 25 µM	> 25 µM	> 25 µM	–	> 25 µM	> 25 µM	> 25 µM	–	> 25 µM
CN(C)Cc1ccc(C(C)(C)C)cc1-c1cc(C(C)(C)C)ccc1CN(C)C	> 100 µM	> 100 µM	37.9 µM	> 100 µM	> 100 µM	> 100 µM	51.7 µM	> 100 µM	> 100 µM	> 100 µM	–	–	–	–	–	–	–	–	–	–
CCOC(=O)c1c(NC(=O)c2ccccc2)sc2c3c(ccc12)OCN(C)C3	4.79 µM	3.4 µM	3.7 µM	5.11 µM	2.68 µM	3.27 µM	3.85 µM	3.54 µM	3.17 µM	3.1 µM	2.16 µM	1.79 µM	1.77 µM	0.694 µM	1.2 µM	1.7 µM	1.97 µM	1.81 µM	1.59 µM	1.56 µM
Cc1ccc(-c2nc(N3CCNCC3)c3oc(-c4ccccc4)nc3n2)cc1	29.5 µM	3.25 µM	3.53 µM	3.55 µM	3.36 µM	3.19 µM	> 100 µM	3.09 µM	3.75 µM	3.29 µM	15.7 µM	1.77 µM	1.81 µM	1.61 µM	1.66 µM	1.74 µM	> 100 µM	1.68 µM	1.85 µM	1.85 µM
